Laboratory results: US5140025A, “Thienotricylene for the treatment of bronchial diseases” (BYK Gulden Lomberg Chemische Fabrik GmbH, priority 1987, dated 1992)
Read-outs that look alike come from different tables or passages of the source.

Key:
[1] = system: acetylcholine-induced bronchospasm; assay: Acetylcholine-induced bronchospasm in anaesthetised, spontaneously breathing guinea pigs, intravenous administration; assay type: in vivo, guinea pig (Pirbright White); conditions: for Mean bronchospasmolytic activity, percentage increase of Vmaxe vs control spasm / Mean bronchospasmolytic activity, percentage increase of tidal volume (TV) vs control spasm: 0-60 min; for Mean bronchospasmolytic activity, percentage increase of Vmaxe vs control spasm / Mean bronchospasmolytic activity, percentage increase of tidal volume (TV) vs control spasm / Bronchospasmolytic activity, percentage increase of Vmaxe vs control spasm / Bronchospasmolytic activity, percentage increase of tidal volume (TV) vs control spasm: x±SEM, N=10; for ED50: Cavia porcellus, iv, 1 h, mean activity 0-60 min; for Bronchospasmolytic activity, percentage increase of Vmaxe vs control spasm / Bronchospasmolytic activity, percentage increase of tidal volume (TV) vs control spasm: at 60 min
Text: Effect of Intravenously Administered Telenzepine on Acetylchline-Induced Bronchospasms in Anaesthetised, Spontaneously Breathing Guinea Pigs
Method for simultaneously recording pharmacodynamic or toxic effects on interior sensitive receptors and the respiration of guinea pigs (U. Kilian, E. Muller, E. Ch. Dittmann and J. Hamacher, Arzneim.-Forsch. 28, 1699-1708, 1978).
Pirbright White, Interfauna (Tuttlingen), 350-450 g, male.
(§1) Ethylurethane 1.2 g/kg i.p. as 12.5% aqueous solution.
Pneumotachogram: Maximum flow velocities of the respiratory air during expiration (Vmaxe, "peak flow"), tidal volume (TV).
Acetylcholine as spasmogen, 0.2-0.3 μmol/kg i.v., dissolved in 0.9% NaCl.
-10 min control spasm, 0 min administration of substance, +2, +10, +20, +30, +60 min test spasms.
Determination of the effect of telenzepine on the parameters (mean and standard error of mean, n=10) and calculation of the bronchospasmolytic activity from this as percentage inhibition of the acetylcholine-induced decrease of Vmaxe and TV by means of time/effect curves. Computation of a dose/response curve of the mean bronchospasmolytic activity during the observation time (0-60 min) from the areas under the time/effect curves and reading of 1 h ED50 values. Determination of a dose/response curve of the bronchospasmolytic activity at time 60 min and reading ED50 values.

[2] = system: acetylcholine-induced changes in lung function parameters; assay: Acetylcholine-induced changes in lung function parameters in anaesthetised guinea pigs, intratracheal administration (whole-body plethysmography); assay type: in vivo, guinea pig (Pirbright White); conditions: for Bronchospasmolytic activity, percentage increase of compliance vs control / Bronchospasmolytic activity, percentage increase of conductance vs control: x±SEM, N=10; for ED50: Cavia porcellus
Text: Effect of Intratracheally (i.t.) Administered (±)-Telenzepine on Acetylcholine-Induced Changes in Lung Function Parameters in Anaesthetised Guinea Pigs
Small-anmimal whole-body plethysmography in anaesthetised guinea pigs (method according to U. Heinreich and A. Wilhelm, in bga-Schriften 5/84, pp 255-266, MMW-Verlag, 1984).
Pirbright White, Interfauna (Tuttlingen). 290-350 g, male.
as §1
Plethysmographic measurement of maximum flow velocities of the respiratory air and tidal volume using tracheal catheter inserted through the natural passages; and measurement of intrapleural pressure using oesophageal catheter inserted through the natural passages.
0.001, 0.01, 0.1 and 1 μmol/kg (±)-telenzepine i.t., dissolved in 0.1 ml/kg 0.9% NaCl+0.1% Tween 80, acetylcholine as spasmogen administered by inhalation of ultrasonically nebulized 0.18% acetylcholine/0.9% NaCl solution.
-10 min control spasm, 0 min administration of substance, +5 and +30 min test spasms.
Computation of conductance (=capacity of airways to conduct air, equivalent to reciprocal of airway resistance) and of compliance (=distensibility of lung) from the recorded data, according to the method of Amdur and Mead (Amer. J. Physiol., 192, 364-368, 1958), before and at peak spasm, and determination of differences; calculation of percentage inhibition of the spasm after administration of the substance, in comparison with the control spasm; calculation of the dose/response curve and ED50 values of this bronchospasmolytic activity.

## Cc1scc2c1N(C(=O)CN1CCN(C)CC1)c1ccccc1NC2=O (racemic) [(±)-telenzepine, 4,9-dihydro-3-methyl-4-[(4-methyl-1-piperazinyl)-acetyl]-10H-thieno[3,4-b][1,5]benzodiazepin-10-one]
[1]; 0.03 μmol/kg i.v.
  Mean bronchospasmolytic activity, percentage increase of Vmaxe vs control spasm: 7 ± 3%
  Mean bronchospasmolytic activity, percentage increase of tidal volume (TV) vs control spasm: 7 ± 3%
  Bronchospasmolytic activity, percentage increase of Vmaxe vs control spasm: 11 ± 4%
  Bronchospasmolytic activity, percentage increase of tidal volume (TV) vs control spasm: 12 ± 6%
[1]; 0.05 μmol/kg i.v.
  Mean bronchospasmolytic activity, percentage increase of Vmaxe vs control spasm: 22 ± 3%
  Mean bronchospasmolytic activity, percentage increase of tidal volume (TV) vs control spasm: 26 ± 4%
  Bronchospasmolytic activity, percentage increase of Vmaxe vs control spasm: 25 ± 3%
  Bronchospasmolytic activity, percentage increase of tidal volume (TV) vs control spasm: 32 ± 5%
[1]; 0.1 μmol/kg i.v.
  Mean bronchospasmolytic activity, percentage increase of Vmaxe vs control spasm: 61 ± 8%
  Mean bronchospasmolytic activity, percentage increase of tidal volume (TV) vs control spasm: 68 ± 9%
  Bronchospasmolytic activity, percentage increase of Vmaxe vs control spasm: 70 ± 9%
  Bronchospasmolytic activity, percentage increase of tidal volume (TV) vs control spasm: 78 ± 11%
[1]; 1 μmol/kg i.v.
  Mean bronchospasmolytic activity, percentage increase of Vmaxe vs control spasm: 81 ± 4%
  Mean bronchospasmolytic activity, percentage increase of tidal volume (TV) vs control spasm: 84 ± 4%
  Bronchospasmolytic activity, percentage increase of Vmaxe vs control spasm: 82 ± 5%
  Bronchospasmolytic activity, percentage increase of tidal volume (TV) vs control spasm: 85 ± 5%
[1]; 5 μmol/kg i.v.
  Mean bronchospasmolytic activity, percentage increase of Vmaxe vs control spasm: 75 ± 3%
  Mean bronchospasmolytic activity, percentage increase of tidal volume (TV) vs control spasm: 86 ± 2%
  Bronchospasmolytic activity, percentage increase of Vmaxe vs control spasm: 80 ± 4%
  Bronchospasmolytic activity, percentage increase of tidal volume (TV) vs control spasm: 91 ± 3%
[1]; read-out: ED50 of mean bronchospasmolytic activity, TV
  ED50: 0.07 µmol/kg
[1]; read-out: ED50 of mean bronchospasmolytic activity, Vmaxe
  ED50: 0.08 µmol/kg
[1]; i.v.
  dose range of dose- and time-dependent inhibition of acetylcholine-induced bronchospasm: 0.03-1 μmol/kg i.v.
[1]; i.v., observation period
  persistence of maximum effect: ≥ 1 h
[2]; 5 min, 0.001 μmol/kg i.t.
  Bronchospasmolytic activity, percentage increase of compliance vs control: 5 ± 1%
  Bronchospasmolytic activity, percentage increase of conductance vs control: 12 ± 3%
[2]; 5 min, 0.01 μmol/kg i.t.
  Bronchospasmolytic activity, percentage increase of compliance vs control: 50 ± 9%
  Bronchospasmolytic activity, percentage increase of conductance vs control: 62 ± 10%
[2]; 5 min, 0.1 μmol/kg i.t.
  Bronchospasmolytic activity, percentage increase of compliance vs control: 34 ± 10%
  Bronchospasmolytic activity, percentage increase of conductance vs control: 46 ± 10%
[2]; 5 min, 1 μmol/kg i.t.
  Bronchospasmolytic activity, percentage increase of compliance vs control: 57 ± 9%
  Bronchospasmolytic activity, percentage increase of conductance vs control: 65 ± 9%
[2]; 30 min, 0.001 μmol/kg i.t.
  Bronchospasmolytic activity, percentage increase of compliance vs control: 13 ± 3%
  Bronchospasmolytic activity, percentage increase of conductance vs control: 20 ± 5%
[2]; 30 min, 0.01 μmol/kg i.t.
  Bronchospasmolytic activity, percentage increase of compliance vs control: 49 ± 9%
  Bronchospasmolytic activity, percentage increase of conductance vs control: 51 ± 9%
[2]; 30 min, 0.1 μmol/kg i.t.
  Bronchospasmolytic activity, percentage increase of compliance vs control: 51 ± 9%
  Bronchospasmolytic activity, percentage increase of conductance vs control: 54 ± 7%
[2]; 30 min, 1 μmol/kg i.t.
  Bronchospasmolytic activity, percentage increase of compliance vs control: 89 ± 4%
  Bronchospasmolytic activity, percentage increase of conductance vs control: 84 ± 2%
[2]; 5 min, 5 min p.a., read-out: ED50 of bronchospasmolytic activity, compliance
  ED50: 0.3 µmol/kg
[2]; 5 min, 5 min p.a., read-out: ED50 of bronchospasmolytic activity, conductance
  ED50: 0.05 µmol/kg
[2]; 0.5 h, 30 min p.a., read-out: ED50 of bronchospasmolytic activity, compliance
  ED50: 0.03 µmol/kg
[2]; 0.5 h, 30 min p.a., read-out: ED50 of bronchospasmolytic activity, conductance
  ED50: 0.03 µmol/kg
[2]; i.t.
  dose range of time- and dose-dependent inhibition of acetylcholine-induced reduction of conductance and compliance: 0.001-1 μmol/kg i.t.
  efficacy at 30 min compared with 5 min after administration: more pronounced at 30 min than at 5 min
